Data from patent EP0736302A2, “Protease inhibitors, a DNA construct for the expression of a protease and a process for measuring proteases and/or protease inhibitors” (Stichting REGA V.Z.W., priority 1995, dated 1996).
≈ marks a conversion by molar mass, not a printed value. Entries after “also recorded” stand apart in the source; their conditions may differ. Structures can show the parent of a compound that is named as a salt.

Experiments:
[1] = target: T1, gelatinase B from neutrophils (Homo sapiens, UniProt P14780); experiment: gelatinase microtiter plate assay (digestion of biotinylated gelatin, inhibition factor); format: biochemical; set-up: endogenous in cells; host or cells: human neutrophils stimulated with lipopolysaccharide; conditioned medium; details: crude neutrophil gelatinase B, '-' = no inhibitory activity
Method: The measurement of gelatinase activity was based on the detection of non-degraded biotinylated gelatin with a streptavidin-peroxidase conjugate. This test is based on the biotin-avidin method described by Sorbi et al. (25) but modified to a one plate assay (schematically represented in Fig. 1.). Gelatin (1mg/ml) was dissolved in 0.1 M sodium bicarbonate pH 8.3 by heating to 40°C. Biotin-N-hydroxysuccinimide ester was dissolved in dimethylsulfoxide (Me2SO) and was added to the gelatin in a 15-fold molar excess. The mixture was allowed to react overnight at 4°C and the biotinylated gelatin was then dialyzed against phosphate buffered saline (PBS). Neutrophil granulocyte (Neu) medium was collected from human neutrophils after stimulation with lipopolysaccharide (1µg/ml) overnight at 37°C in Minimal Essential Medium. Cells were removed by 10 min centrifugation at 1000 g. Purified gelatinase was obtained by one-step affinity chromatography of neutrophil medium on a gelatin-sepharose column as described (8).
Modified flat bottom 96-well ELISA plates were coated overnight with 0.5 µg/ml avidin in distilled water. The plates were then blocked with 0.3% bovine serum albumin (BSA, Sigma) in PBS for 1 hour at 37°C. Biotinylated gelatin was diluted to 50 µg/ml and 100µl was added to the avidin-coated wells. After incubation for one hour at 20°C, the plate was rinsed with PBS. Medium containing the secreted gelatinases from human neutrophils (dilution range 1/3-1/3^11) and the inhibitors were diluted in incubation buffer (50 mM Tris-HCl pH 7.5, 10 mM CaCl2, 0.02% (W/V) NaN3, 1% (V/V) Triton X-100) and 100 µl of each were mixed. 190 µl of the mixture was added to the gelatin-coated plates and allowed to digest the gelatin overnight at 37°C. The plates were then washed with PBS and each well was incubated with 100 µl peroxidase-conjugated-streptavidin at a 1:2000 dilution for 1 hour at 37°C. After rinsing the plate, the ABTS substrate was added (0.5 mg/ml solution containing 0.1 M citric acid, 0.2 M Na2HPO4, pH 4.3, 0.07 µl/ml 30% H2O2) and the optical density was read at 405 nm after 10 min. incubation at room temperature.
Gelatin is biotinylated and bound to avidin-coated microtiter plates. By addition of gelatinases the number of free biotin groups decreases and proportionally less streptavidin-peroxidase is bound to the residual substrate. Bound streptavidin-peroxidase activity is measured spectrophotometrically by reaction of peroxide with ABTS. Inhibition of gelatinase is obtained by the addition of inhibitor to a known amount of gelatinase prior to application to the plates. The peroxidase activity increases proportionally with the inhibitory activity.
The titration curves of gelatinase inhibition were always related to a blanc curve and this for enzyme concentrations within the slope of the curve (vertical dotted lines Fig. 3). The decrease in enzyme activity to which the inhibitor-incubated sample corresponded was defined as the inhibition factor (IF).
The titration curves of gelatinase inhibition by tetracyclines were always related to a blanc curve and this for enzyme concentrations within the slope of the curve (vertical dotted lines Fig. 3). The decrease in enzyme activity to which the tetracycline incubated sample corresponded was defined as the inhibition factor (IF).

Gelatinase A = target: T2, Gelatinase A (Homo sapiens, UniProt P08253); experiment: zymography of cerebrospinal fluid of MS / optic neuritis patients with inhibitor; format: biochemical; details: CSF of MS patients, increasing concentrations (Fig. 13)
T2 construct: Gelatinase A and B, detected by zymography in the cerebrospinal fluid of MS patients; from tissue; host or cells: cerebrospinal fluid of patients with multiple sclerosis or optic neuritis
T2 sequence (P08253 110-660): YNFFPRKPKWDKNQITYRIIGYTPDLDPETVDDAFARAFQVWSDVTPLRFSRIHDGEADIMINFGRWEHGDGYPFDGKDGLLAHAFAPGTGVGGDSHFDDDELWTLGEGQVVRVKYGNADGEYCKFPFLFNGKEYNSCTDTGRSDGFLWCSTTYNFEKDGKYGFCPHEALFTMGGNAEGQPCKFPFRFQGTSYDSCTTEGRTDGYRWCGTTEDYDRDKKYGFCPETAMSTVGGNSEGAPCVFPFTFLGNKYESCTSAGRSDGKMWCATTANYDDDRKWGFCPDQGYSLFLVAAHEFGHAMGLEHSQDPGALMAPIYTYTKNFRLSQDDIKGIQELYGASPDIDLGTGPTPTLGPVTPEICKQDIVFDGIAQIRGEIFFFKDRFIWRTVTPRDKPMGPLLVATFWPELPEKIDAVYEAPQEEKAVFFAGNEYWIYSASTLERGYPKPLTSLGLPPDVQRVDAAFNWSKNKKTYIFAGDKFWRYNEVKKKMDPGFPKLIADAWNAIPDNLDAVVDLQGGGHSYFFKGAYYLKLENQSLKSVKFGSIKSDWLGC
Method: (§1) Quantitative zymography was performed as described (7,8). Briefly, 40 µl of loading buffer was added to 40 µl of each sample and applied on 7.5% polyacrylamide gels which had been co-polymerised with 0.1% (w/v) gelatin. Stacking gels contained 5% polyacrylamide. The gels were run at 4°C for 16h at 90V. The gels were then incubated in washing buffer (50 mM Tris-HCl pH 7.5, 10mM CaCl2, O.O2% (W/V) NaN3, 2.5% (v/v) Triton X-100) at room temperature, 2x20 min to remove sodium dodecyl sulfate and overnight in developing buffer (50 mM Tris-HCl pH 7.5, 10mM CaCl2, O.O2% (w/v) NaN3, 1% (v/v) Triton X-100) at 37°C. […] The sites of gelatinase activity appeared as unstained bands on a blue background and were quantified by computerised image analysis through scanning densitometry with a PDI scanner (Pharmacia, Belgium) and the PDI software package. […]
(§2) Similar results were obtained when pure preparations of gelatinase B were tested or when gelatinase B was measured in the presence of D-penicillamine in body fluids or cell supernatants.
(§3) Figure 13. […] Gelatinase A (---) and B(_) activities in the CSF were measured by zymography in the absence or the presence of increasing concentrations of D-penicillamine. The scanning indices for each patient are calculated at the residual activity in the presence of inhibitor versus the activity without inhibitor. […]

Gelatinase B [2] = target: T3, Gelatinase B (Homo sapiens, UniProt P14780); experiment: as above; format: biochemical; details: CSF of MS patients, increasing concentrations (Fig. 13)
T3 construct: Gelatinase A and B, detected by zymography in the cerebrospinal fluid of MS patients; from tissue; host or cells: cerebrospinal fluid of patients with multiple sclerosis or optic neuritis
Method: as §1, §2, §3

gelatinase B [3] = experiment: inhibition of homogeneous enzyme (ID50); format: biochemical
SJL mice = experiment: acute (hyperacute) experimental allergic encephalomyelitis; details: intraperitoneally, equivalent of 27 to 375 µg per mouse daily (Fig. 15)
Method: In both hind paws 50µl of this emulsion was injected on day 0. On day 0 and 2, 50µl B.pertussis (200x10^9 bacteria/ml) were injected intraveneously. […] The control group received injections with 0.9% NaCl, used as excipiens. The animals were daily monitored and the disease and mortality were scored.).

[4] = tested on: human monocytic cell line THP-1; experiment: cellular gelatinase B protein and mRNA production (northern blot, zymography); format: cell-based; details: THP-1, LPS 1µg/ml, retinoic acid 100nM or untreated; DPEN 50 µg/ml; 16 h (Fig. 14)
Method: Figure 14. […] Cultures of the human monocytic cell line THP-1 were stimulated with lipopolysaccharide (LPS, 1µg/ml), retinoic acid (RA, 100nM) or left untreated (CO) in the presence or absence of D-penicillamine (DPEN, 50 µg/ml). After 16 h total RNA was extracted and gelatinase B mRNA was measured by northern blot analysis with a human probe (41) (a). Gelatinase B protein in the cell culture fluids was assayed by zymographic analysis on gelatin substrate gels (b).

Biozzi AB/H mice = experiment: chronic relapsing experimental allergic encephalomyelitis; format: in vivo; details: 750 µg three times weekly from day 22 onwards, after full-blown disease (Fig. 16)
[5] = target: T1, gelatinase B from neutrophils; experiment: quantitative gelatin zymography with inhibitor in the developing buffer; format: biochemical; set-up: A standard preparation of gelatinase B from neutrophils was repetitiously loaded; endogenous in cells; host or cells: human neutrophils; details: increasing amounts of inhibitor in developing buffer (Fig. 4)
Method: Quantitative zymography was performed as described (7,8). Briefly, 40 µl of loading buffer was added to 40 µl of each sample and applied on 7.5% polyacrylamide gels which had been co-polymerised with 0.1% (w/v) gelatin. Stacking gels contained 5% polyacrylamide. The gels were run at 4°C for 16h at 90V. The gels were then incubated in washing buffer (50 mM Tris-HCl pH 7.5, 10mM CaCl2, O.O2% (W/V) NaN3, 2.5% (v/v) Triton X-100) at room temperature, 2x20 min to remove sodium dodecyl sulfate and overnight in developing buffer (50 mM Tris-HCl pH 7.5, 10mM CaCl2, O.O2% (w/v) NaN3, 1% (v/v) Triton X-100) at 37°C. The gels were then stained in Coomassie brilliant blue R-250 and destained in methanol/acetic acid. The sites of gelatinase activity appeared as unstained bands on a blue background and were quantified by computerised image analysis through scanning densitometry with a PDI scanner (Pharmacia, Belgium) and the PDI software package. For inhibition experiments, the inhibitors were dissolved in the developing buffer at the appropriate concentration. […] The enzyme activity was developed by staining of the substrate with Coomassie blue and quantification of the substrate digestion by scanning densitometry. […] The enzyme activity was developed by staining of the substrate with Coomassie blue and quantification of the substrate digestion by scanning densitometry. […]

[6] = tetracycline concentration 1.67 mg/ml
[7] = tetracycline concentration 3.33 mg/ml
[8] = tetracycline concentration 0,83 mg/ml

T1 sequence (P14780 94-707): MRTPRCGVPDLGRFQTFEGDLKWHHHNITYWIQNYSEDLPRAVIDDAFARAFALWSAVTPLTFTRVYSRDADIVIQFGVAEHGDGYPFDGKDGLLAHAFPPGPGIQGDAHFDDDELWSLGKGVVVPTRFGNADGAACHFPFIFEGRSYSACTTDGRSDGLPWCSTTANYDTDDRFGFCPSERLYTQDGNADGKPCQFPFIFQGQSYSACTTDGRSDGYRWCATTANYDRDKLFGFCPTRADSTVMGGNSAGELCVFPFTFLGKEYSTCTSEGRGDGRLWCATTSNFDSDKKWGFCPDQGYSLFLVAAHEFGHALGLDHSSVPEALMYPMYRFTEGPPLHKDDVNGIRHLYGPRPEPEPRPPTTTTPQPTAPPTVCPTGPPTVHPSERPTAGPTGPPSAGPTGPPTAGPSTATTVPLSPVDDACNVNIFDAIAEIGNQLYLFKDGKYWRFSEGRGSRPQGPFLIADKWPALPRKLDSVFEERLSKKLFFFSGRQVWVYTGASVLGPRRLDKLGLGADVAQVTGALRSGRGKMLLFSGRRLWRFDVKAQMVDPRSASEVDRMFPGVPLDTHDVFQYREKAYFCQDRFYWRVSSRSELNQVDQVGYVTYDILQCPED
T3 sequence (P14780 94-707): as above

Compound	Inhibition factor (IF) [1, 6]	Inhibition factor (IF) [1, 7]	also measured
4-epitetracycline HCl	3		
7-aminominocycline HCl		precipitation	
Cc1c2c(c(O)c3c(O)cccc13)C(=O)[C@]1(O)C(=O)C(C(N)=O)=C(O)[C@H](N(C)C)[C@@H]1C2 [4-epianhydrotetracycline HCl]		precipitation	
CN(C)[C@H]1C(O)=C(C(N)=O)C(=O)[C@@]2(O)C(O)=C3C(=O)c4c(O)ccc(Cl)c4[C@@](C)(O)[C@H]3C[C@@H]12 [4-epichlortetracycline HCl]		precipitation	
CN(C)c1ccc(O)c2c1C[C@H]1C[C@H]3[C@@H](N(C)C)C(O)=C(C(N)=O)C(=O)[C@@]3(O)C(O)=C1C2=O [4-epiminocycline HCl]		3	
CN(C)[C@@H]1C(O)=C(C(N)=O)C(=O)[C@@]2(O)C(O)=C3C(=O)c4c(O)cccc4C[C@H]3C[C@@H]12 [6-deoxy-6-demethyltetracycline HCl]	5	8	Inhibition factor (IF) [1, 8]: 3
CC(C)(S)[C@@H](N)C(=O)O [D-penicillamine]			inhibition of Gelatinase A in cerebrospinal fluid (Gelatinase A): inhibited in a dose-dependent way; inhibition of Gelatinase B in cerebrospinal fluid (Gelatinase B [2]): inhibited in a dose-dependent way; ID50 (gelatinase B [3]): 3 µg/mL (≈ 20.1 µM); development of disease symptoms (mean disability index), acute EAE (SJL mice): complete blockage; also recorded: inhibits in a dose-dependent way the development of disease symptoms; spontaneous and induced levels of gelatinase B protein and mRNA [4]: remained constant; disease recurrencies (mean clinical score), chronic relapsing EAE (Biozzi AB/H mice): abrogated the disease recurrencies
CN(C)[C@@H]1C(O)=C(C(N)=O)C(=O)[C@@]2(O)C(O)=C3C(=O)c4c(O)ccc(Cl)c4[C@@](C)(O)[C@H]3C[C@@H]12 [chlortetracycline HCl]	27	45	Inhibition factor (IF) [1, 8]: 9
CN(C)[C@@H]1C(=O)C(C(N)=O)=C(O)[C@@]2(O)C(=O)C[C@@H]([C@]3(C)OC(=O)c4c(O)ccc(Cl)c43)C[C@@H]12 [isochlortetracycline HCl]		3	
C=C1c2cccc(O)c2C(=O)C2=C(O)[C@]3(O)C(=O)C(C(N)=O)=C(O)[C@@H](N(C)C)[C@@H]3[C@@H](O)[C@H]12 [metacycline HCl]	8	27	Inhibition factor (IF) [1, 8]: 3
CN(C)c1ccc(O)c2c1C[C@H]1C[C@H]3[C@H](N(C)C)C(O)=C(C(N)=O)C(=O)[C@@]3(O)C(O)=C1C2=O [minocycline HCl]	3	8	inhibition of gelatinase B on zymography [5]: inhibits gelatinase B in a dose-dependent way
CN(C)[C@@H]1C(O)=C(C(N)=O)C(=O)[C@@]2(O)C(O)=C3C(=O)c4c(O)cccc4[C@@](C)(O)[C@H]3C[C@@H]12 [tetracycline HCl]	3	8	
α-apooxytetracycline base	3	9	
β-apooxytetracycline base		3	
